“Also recorded” adds a separate entry of the source.
Experiments:
A549 lung cancer cells = assay: AlamarBlue cell viability assay on A549 cells; format: cell-based, human; conditions: viable cells vs vehicle after 5 days; SMARCA4 frame shift deletion
Description: (§1) Cell Viability Assay. To determine the effects of various drug treatments on oncogenic RAS mutant cells, an AlamarBlue assay (Invitrogen) was performed. 2500 cells were seeded in triplicate in 96-well plates one day prior to drug treatments. For TRI-102 and AML-RAS cells, fluorescence was measured at 72 hrs after drug addition. For other oncogenic RAS cells, fluorescence was measured 120 hrs after drug addition.
(§2) Cell Viability Assay. To determine the effects of various drug treatments on oncogenic RAS mutant cells, AlamarBlue assay (Invitrogen) was performed. 2500 cells were seeded in triplicate in 96-well plates one day prior to drug treatments. For TRI-102 and AML-RAS cells, fluorescence was measured at 72 hrs after drug addition. For other oncogenic RAS cells, fluorescence was measured 120 hrs after drug addition.

AML-RAS cells [1] = assay: AlamarBlue cell viability assay on AML-RAS cells; format: cell-based, human; conditions: 3 days after treatment; 20 mM LiCl, 5 uM Kenpaullone or 2 uM BIO
Description: as §1, §2

[2] = test system: patient-derived cancer cells with oncogenic RAS mutations (lung, colon, pancreatic, melanocytic); assay: AlamarBlue cell viability assay on panel of 17 patient-derived oncogenic RAS cancer cells; format: cell-based, human; conditions: panel of 17 lines; viable cells vs vehicle after 5 days
Description: as §1, §2

H1792 cells = assay: Soft agar assay on H1792 cells; format: cell-based, human; conditions: 20 mM LiCl
Description: (§3) Softagar Assay. Soft agar assays were performed in triplicate in 6-well plates. For each well, a bottom layer containing 1% agar in growth medium was added. Then 10,000 cells were plated in 0.5% agar in growth medium. Growth medium was added to each well and changed every 3 days. The colonies were counted after 3-4 weeks.

AML-RAS xenografts = assay: AML-RAS cell xenograft model; format: in vivo, nude mice; conditions: LiCl 340 mg/kg intraperitoneal every two days, 28 days
Description: Xenograft. 10^6 AML-RAS cells were resuspended in PBS and inoculated subcutaneously into both flanks of 6-week old female nude mice (Charles River Laboratory). Seven days after transplantation, animals were treated with intraperitoneal injections of LiCl (340 mg/kg body weight), or an equal volume of vehicle (PBS) every two days. Tumor volume (mm3) and body weight (g) were measured every 2 days. The tumor volume was estimated by using caliper measurements based on formula W^2×L/2 (L is the length of the tumor, W is the width of the tumor). All experiments were approved by and conducted in compliance with the Yale Animal Resources Center and the Institutional Animal Care and Use Committee under protocol number 2008-10230.
Xenograft. 10^6 AML-RAS cells were resuspended in PBS and inoculated subcutaneously into both flanks of 6-week old female nude mice (Charles River Laboratory). Seven days after transplantation, animals were treated with intraperitoneal injections of LiCl (340 mg/kg body weight), or an equal volume of vehicle (PBS) every two days. Tumor volume (mm3) and body weight (g) were measured every 2 days. The tumor volume was estimated using caliper measurements based on formula W^2×L/2 (L is the length of the tumor, W is the width of the tumor). […]

AML-RAS cells [3] = assay: Soft agar assay on AML-RAS cells; format: cell-based, human; conditions: 20 mM LiCl; colonies counted after 3-4 weeks
Description: as §3

A549 cells = assay: Soft agar assay on A549 cells; format: cell-based, human; conditions: 20 mM LiCl
Description: as §3

Compound	growth of A549 lung cancer cells (A549 lung cancer cells)	growth of the AML-RAS cells (viable cells) (AML-RAS cells [1])	growth of patient-derived cancer cells harboring oncogenic KRAS, NRAS or HRAS mutations [2]	anchorage-independent growth of the H1792 cells in soft agar (H1792 cells)	tumor growth in AML-RAS xenografts (AML-RAS xenografts; nude mice)	health of the recipient mice (body weight) (AML-RAS xenografts; tumor-suppressing dose)	anchorage-independent growth of the AML-RAS cells in soft agar (AML-RAS cells [3])	anchorage-independent growth of the A549 cells in soft agar (A549 cells)
O=C1Nc2cc(Br)ccc2/C1=C1/Nc2ccccc2/C1=N\O [BIO, 6-bromoindirubin-30-oxime]	not significantly suppressed	specifically inhibited the growth	suppresses the growth	–	–	–	–	–
[Cl-].[Li+] [LiCl, lithium chloride]	not significantly suppressed	specifically impaired the growth	suppresses the growth	completely inhibited; also recorded: dramatically inhibited	dramatically suppressed	not affected	prevented; also recorded: dramatically suppressed	failed to suppress
O=C1Cc2c([nH]c3ccc(Br)cc23)-c2ccccc2N1 [Kenpaullone]	not significantly suppressed	specifically inhibited the growth	suppresses the growth	–	–	–	–	–
